Experimental data from PubChem BioAssay AID602445 (National Center for Advancing Translational Sciences (NCATS), 2012).

Test system: mouse liver microsomes with NADPH, percent remaining
Test: High Content Assay for Compounds that inhibit the Assembly of the Perinucleolar Compartment: Mouse Liver Microsome Stability with NADPH
Details: active compounds read low
Text: The perinucleolar compartment (PNC) is a non-membrane-bound nuclear subdomain that is associated with but structurally distinct from the nucleolus. The PNC is a heritable trait, in which the number of PNCs per cell in daughter cells often mimics that of their mother cells. The PNC is heterogeneous in shape, is stable through interphase, disassembles during mitosis, and reassembles in early G1. The PNC is concentrated with newly synthesized RNA polymerase III (pol III) RNAs (MRP RNA, RNAse P H1 RNA, hY RNAs[hY1, 2, 5], Alu RNA, and SRP [7SL] RNA) and RNA binding proteins (nucleolin, PTB, CUG-BP, KSRP, Raver1, Raver2, and Rod).
Extensive in vitro studies have shown that the PNC is unique to tumor cells and preferentially forms in tumor cells derived from solid tissues. Examination of cancer cell lines from various origins and malignant capacities has shown that PNC prevalence correlates with the malignancy of tumors and has the potential to be developed as a pan-cancer prognostic marker.
Mouse liver microsomes are generated from lysed mouse liver. […]
1uM of compound in incubated in mouse liver microsome; the reference compound is ketanserin. […] Samples are analyzed with LC-MS/MS.

Compound: N=c1c2c(-c3ccccc3)c(-c3ccccc3)n(Cc3ccccc3)c2ncn1C1CCC(O)CC1 (stereo unspecified)
- percent remaining: 107%
